Values belong to the compound of their own block, whether it stands above or below them. *1 amine or outer side, *2 acyl side, *3 side chain or, on linkers, in order; H or OH if unused. Where a SMILES comes first, the peptide text is derived from it. [ ]: non-standard residue; d: D form. The star is where a group is joined. ξ: configuration not given here. X1 = Brc1c(Br)c(Br)c2[nH]c(NCCCN*)nc2c1Br; X2 = O=C(Cc1c(Br)c(Br)c(Br)c2[nH]nnc12)*; Suc = O=C(CCC(=O)[*:2])[*:1]; ξE = NC(CCC(=O)O)C(=O)O; ξS = NC(CO)C(=O)O
Assays:
[1] = Inhibition of CK2alpha2beta2 (unknown origin); set-up: species or system Homo sapiens
[2] = target: T1, Serine/threonine-protein kinase haspin (Homo sapiens, UniProt Q8TF76)
T1 sequence (Q8TF76 whole entry): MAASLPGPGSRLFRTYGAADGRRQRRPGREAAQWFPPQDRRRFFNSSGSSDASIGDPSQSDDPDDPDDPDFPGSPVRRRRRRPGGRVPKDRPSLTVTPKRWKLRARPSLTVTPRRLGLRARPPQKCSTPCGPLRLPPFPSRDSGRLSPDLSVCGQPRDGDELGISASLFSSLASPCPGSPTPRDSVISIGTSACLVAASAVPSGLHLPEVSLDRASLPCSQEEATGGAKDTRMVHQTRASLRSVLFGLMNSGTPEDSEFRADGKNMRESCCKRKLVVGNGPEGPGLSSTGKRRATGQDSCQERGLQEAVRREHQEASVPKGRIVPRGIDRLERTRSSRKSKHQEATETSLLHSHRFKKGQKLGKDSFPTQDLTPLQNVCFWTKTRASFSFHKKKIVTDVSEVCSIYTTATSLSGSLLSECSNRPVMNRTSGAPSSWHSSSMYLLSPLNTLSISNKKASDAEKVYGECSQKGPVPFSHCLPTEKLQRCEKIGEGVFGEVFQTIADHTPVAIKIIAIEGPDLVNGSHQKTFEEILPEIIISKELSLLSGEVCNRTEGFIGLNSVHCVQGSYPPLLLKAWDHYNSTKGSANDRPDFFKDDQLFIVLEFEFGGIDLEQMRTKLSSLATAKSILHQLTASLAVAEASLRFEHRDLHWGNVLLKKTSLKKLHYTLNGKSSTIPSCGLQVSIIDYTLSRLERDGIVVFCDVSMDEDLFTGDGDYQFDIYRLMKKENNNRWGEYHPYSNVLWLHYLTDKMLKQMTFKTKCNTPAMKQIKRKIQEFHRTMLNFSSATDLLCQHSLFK

[3] = Binding affinity to full length human recombinant PKAc assessed as dissociation constant
[4] = species on record: Homo sapiens
[5] = target: T2, cAMP-dependent protein kinase (PKA) (Homo sapiens, UniProt P22694+P17612+P22612)
[6] = target: Mitogen-activated protein kinase 1 (Homo sapiens, UniProt P28482)
[7] = target: Casein kinase 2 (Homo sapiens, UniProt P67870+P68400+P19784+Q8NEV1); assay: Inhibition of human CK2; type: protein assay
[8] = Binding affinity to PKAc (unknown origin) assessed as dissociation constant; set-up: species or system Homo sapiens
[9] = target: T2, cAMP-dependent protein kinase (PKA); assay: Binding affinity to PKA (unknown origin) assessed as dissociation constant; type: protein assay
[10] = Inhibition of AKR3 (unknown origin) assessed as dissociation constant; set-up: species or system Homo sapiens
[11] = target: Rho-associated protein kinase 2 (Homo sapiens, UniProt O75116); assay: Inhibition of ROCK2 (unknown origin) assessed as dissociation constant
[12] = species on record: Homo sapiens; assay: Selectivity ratio of Kd for inhibition of Untagged full length human PKAc alpha expressed in Escherichia coli BL21 DE3 cells assessed as dissociation constant to Kd for AKR3
[13] = species on record: Homo sapiens; assay: Selectivity ratio of Kd for inhibition of Untagged full length human PKAc alpha expressed in Escherichia coli BL21 DE3 cells assessed as dissociation constant to Kd for inhibition of ROCK2 (unknown origin)
[14] = target: Proto-oncogene tyrosine-protein kinase Src (Homo sapiens, UniProt P12931); assay: Inhibition of c-Src (unknown origin)
[15] = target: Casein kinase II subunit alpha (Homo sapiens, UniProt P68400); assay: Inhibition of CK2alpha in human MIA PaCa-2 cells incubated for 5 hrs by western blot analysis; type: cell-based
Sequence of Casein kinase II subunit alpha (P68400 whole entry): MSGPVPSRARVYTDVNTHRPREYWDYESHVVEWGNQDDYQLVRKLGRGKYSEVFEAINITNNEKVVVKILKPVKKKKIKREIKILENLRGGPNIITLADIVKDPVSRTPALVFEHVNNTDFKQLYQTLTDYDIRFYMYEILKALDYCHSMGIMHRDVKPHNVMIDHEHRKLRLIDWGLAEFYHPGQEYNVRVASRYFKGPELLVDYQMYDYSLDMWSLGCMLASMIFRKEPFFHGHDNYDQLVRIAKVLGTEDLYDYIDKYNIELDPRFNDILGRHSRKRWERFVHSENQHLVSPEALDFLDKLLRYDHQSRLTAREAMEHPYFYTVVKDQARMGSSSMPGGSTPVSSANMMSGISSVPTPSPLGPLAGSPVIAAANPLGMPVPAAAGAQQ

Sequence of Proto-oncogene tyrosine-protein kinase Src (P12931 2-536 limits assumed): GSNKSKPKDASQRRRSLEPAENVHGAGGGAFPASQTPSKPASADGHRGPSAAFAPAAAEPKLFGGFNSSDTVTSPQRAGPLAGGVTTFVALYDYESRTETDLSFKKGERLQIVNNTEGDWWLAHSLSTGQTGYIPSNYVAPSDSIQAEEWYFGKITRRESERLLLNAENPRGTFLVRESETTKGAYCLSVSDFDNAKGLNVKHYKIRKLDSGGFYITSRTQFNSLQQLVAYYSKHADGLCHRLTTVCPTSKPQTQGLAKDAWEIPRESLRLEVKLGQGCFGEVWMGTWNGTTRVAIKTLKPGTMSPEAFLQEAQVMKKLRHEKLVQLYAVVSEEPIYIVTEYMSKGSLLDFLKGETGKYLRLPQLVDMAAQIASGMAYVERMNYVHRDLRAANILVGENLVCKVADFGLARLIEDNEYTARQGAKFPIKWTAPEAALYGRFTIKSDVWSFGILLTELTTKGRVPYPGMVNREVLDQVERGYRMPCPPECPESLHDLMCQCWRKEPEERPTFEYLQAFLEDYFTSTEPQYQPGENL
Sequence of Mitogen-activated protein kinase 1 (P28482 whole entry): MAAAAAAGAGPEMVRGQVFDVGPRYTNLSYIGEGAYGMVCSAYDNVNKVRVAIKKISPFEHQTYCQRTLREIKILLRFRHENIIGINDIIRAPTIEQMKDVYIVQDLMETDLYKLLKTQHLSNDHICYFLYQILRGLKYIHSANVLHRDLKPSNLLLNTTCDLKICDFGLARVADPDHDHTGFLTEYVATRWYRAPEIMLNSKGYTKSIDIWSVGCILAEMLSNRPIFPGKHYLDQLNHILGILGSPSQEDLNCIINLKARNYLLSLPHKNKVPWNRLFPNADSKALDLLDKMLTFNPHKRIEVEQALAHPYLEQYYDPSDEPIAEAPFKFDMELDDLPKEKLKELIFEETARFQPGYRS
Sequence of Rho-associated protein kinase 2 (O75116 whole entry): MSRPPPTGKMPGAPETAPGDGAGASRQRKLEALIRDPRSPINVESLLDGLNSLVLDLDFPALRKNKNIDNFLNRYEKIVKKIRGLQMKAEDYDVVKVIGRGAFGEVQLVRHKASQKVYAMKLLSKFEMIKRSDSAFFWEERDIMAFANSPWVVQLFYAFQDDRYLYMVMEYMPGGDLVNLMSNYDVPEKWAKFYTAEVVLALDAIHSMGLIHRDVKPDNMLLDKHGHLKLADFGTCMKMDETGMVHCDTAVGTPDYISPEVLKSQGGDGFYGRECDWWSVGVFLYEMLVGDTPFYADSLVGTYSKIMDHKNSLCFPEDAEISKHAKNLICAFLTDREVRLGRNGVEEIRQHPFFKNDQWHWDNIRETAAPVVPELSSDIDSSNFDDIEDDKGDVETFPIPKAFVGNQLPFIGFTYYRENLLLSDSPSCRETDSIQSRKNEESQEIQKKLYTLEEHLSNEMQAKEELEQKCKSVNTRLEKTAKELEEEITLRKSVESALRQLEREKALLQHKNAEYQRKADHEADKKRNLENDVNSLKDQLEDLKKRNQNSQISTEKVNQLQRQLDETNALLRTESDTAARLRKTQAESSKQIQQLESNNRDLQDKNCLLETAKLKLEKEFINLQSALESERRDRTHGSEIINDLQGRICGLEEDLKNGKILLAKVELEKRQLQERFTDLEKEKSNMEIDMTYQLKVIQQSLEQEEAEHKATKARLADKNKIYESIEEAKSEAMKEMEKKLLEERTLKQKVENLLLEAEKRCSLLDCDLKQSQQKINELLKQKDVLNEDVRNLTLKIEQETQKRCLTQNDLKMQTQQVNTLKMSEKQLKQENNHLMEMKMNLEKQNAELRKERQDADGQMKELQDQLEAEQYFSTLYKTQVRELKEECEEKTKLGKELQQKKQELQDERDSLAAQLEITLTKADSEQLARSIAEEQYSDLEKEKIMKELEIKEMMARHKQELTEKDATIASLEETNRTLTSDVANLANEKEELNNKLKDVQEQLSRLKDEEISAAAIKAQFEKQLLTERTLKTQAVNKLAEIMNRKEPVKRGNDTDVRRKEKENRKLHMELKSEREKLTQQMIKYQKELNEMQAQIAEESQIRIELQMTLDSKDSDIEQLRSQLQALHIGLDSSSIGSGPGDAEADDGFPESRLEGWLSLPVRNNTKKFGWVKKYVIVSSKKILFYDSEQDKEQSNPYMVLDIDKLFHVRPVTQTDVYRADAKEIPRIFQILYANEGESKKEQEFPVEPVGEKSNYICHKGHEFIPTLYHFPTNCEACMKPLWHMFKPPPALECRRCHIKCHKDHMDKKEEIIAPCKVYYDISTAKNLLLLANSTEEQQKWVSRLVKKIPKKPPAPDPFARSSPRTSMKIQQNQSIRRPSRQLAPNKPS

- IC50 [1]: 25 nM
SMILES: O=C(O)CC[C@H](NC(=O)[C@H](CCC(=O)O)NC(=O)[C@H](CCC(=O)O)NC(=O)[C@H](CCC(=O)O)NC(=O)CCC(=O)NCCCNc1nc2c(Br)c(Br)c(Br)c(Br)c2[nH]1)C(=O)O ({X1-Suc}-EEEE-OH)

- Kd [2]: 170 nM
- Kd [3]: 1600 nM
- Selectivity Index [4]: 9
SMILES: C[C@H](N)C(=O)N[C@@H](CCCNC(=N)N)C(=O)N[C@@H](CCCCNC(=O)C[C@@H](NC(=O)CCCCCNC(=O)[C@H]1O[C@@H](n2cnc3c(N)ncnc32)[C@H](O)[C@@H]1O)C(N)=O)C(=O)N[C@@H](CCCCN)C(=O)N[C@@H](CCC(=O)O)C(=O)N[C@H](C(=O)N[C@@H](C)C(N)=O)[C@H](C)O

- IC50 [5]: 159 nM
SMILES: CO[C@@H]1[C@H](N(C)C(=O)CCC(=O)O)C[C@H]2O[C@]1(C)n1c3ccccc3c3c4c(c5c6ccccc6n2c5c31)C(=O)NC4

- IC50 [6]: 1200 nM
SMILES: C#CCCCCNC(=O)CCCCCn1nc(N)c2cc(-c3c(-c4ccccc4)nn4ccccc34)nnc21

- IC50 [1]: 10000 nM
SMILES: COC(=O)CC[C@H](NC(=O)CCC(=O)NCCCNc1nc2c(Br)c(Br)c(Br)c(Br)c2[nH]1)C(=O)N[C@@H](CCC(=O)OC)C(=O)N[C@@H](CCC(=O)OC)C(=O)N[C@@H](CCC(=O)OC)C(=O)OC ({X1-Suc}-E(OMe)E(OMe)E(OMe)E(OMe)-OMe)

- IC50 [7]: 8000 nM
SMILES: O=C(O)Cc1c(Br)c(Br)c(Br)c2[nH]nnc12

- Kd [8]: 0.003 nM
- Kd [9]: 0.1 nM
- Kd [10]: 310 nM
- Kd [11]: 30 nM
SMILES: N=C(N)NCCC[C@@H](NC(=O)CCCCCCCC(=O)N1CCN(C2N=CN=C3NC=CC32)CC1)C(=O)N[C@H](CCCNC(=N)N)C(=O)N[C@H](CCCNC(=N)N)C(=O)N[C@H](CCCNC(=N)N)C(=O)N[C@H](CCCNC(=N)N)C(=O)N[C@H](CCCNC(=N)N)C(=O)N[C@H](CCCCN)C(N)=O (stereo not given in full)
- Selectivity ratio [12]: 10
- Ratio [13]: 10

- IC50 [14]: 2900 nM
SMILES: C#CCCC(=O)N1CCN(c2cc(Nc3cc(C4CC4)[nH]n3)nc(C)n2)CC1

- IC50 [15]: 47 nM
SMILES: CC(=O)OCOC(=O)CN(CC(=O)OCOC(C)=O)C(=O)CN(CC(=O)OCOC(C)=O)C(=O)CN(CC(=O)OCOC(C)=O)C(=O)CCCCCCCn1cnc2c(Br)c(Br)c(Br)c(Br)c21

- IC50 [7]: 670 nM
SMILES: NC(=O)C(CCC(=O)O)NC(=O)C(CCC(=O)O)NC(=O)C(CCC(=O)O)NC(=O)C(CO)NC(=O)C(CCC(=O)O)NC(=O)[C@@H](N)CCCCNC(=O)Cc1c(Br)c(Br)c(Br)c2[nH]nnc12 (stereo not given in full) (H-K(X2)[ξE][ξS][ξE][ξE][ξE]-NH2)

- Kd [2]: 150 nM
- Kd [3]: 7700 nM
- Selectivity Index [4]: 50
SMILES: C[C@H](N)C(=O)N[C@@H](CCCNC(=N)N)C(=O)N[C@@H](CCCCNC(=O)C[C@@H](NC(=O)CCCCCNC(=O)[C@H]1O[C@@H](n2cnc3c(N)ncnc32)[C@H](O)[C@@H]1O)C(=O)O)C(=O)N[C@@H](CCCCN)C(=O)N[C@@H](CCC(N)=O)C(=O)N[C@H](C(=O)N[C@@H](C)C(N)=O)[C@@H](C)O
